Assay results as given in US4394503A, “Cephalosporin derivatives” (priority 1981, dated 1983).
Values after ≈ are worked out from the molar mass of the structure shown. Like-named read-outs stand apart in the source and are kept apart here.

Columns and labels:
Ps. aeruginosa (Gn-III) = assay: In vitro antibacterial activity, two-fold agar dilution, Mueller-Hinton agar (Table 1), group Gn-III; assay type: cell-based; conditions: Pseudomonas aeruginosa; read-out: Geometric Mean of MIC
P. mirabilis A9554 = assay: MIC against selected test organisms (Table 2); assay type: cell-based; conditions: Proteus mirabilis
P. aeruginosa A15150 = assay: MIC against selected test organisms (Table 2); assay type: cell-based; conditions: Pseudomonas aeruginosa
B. fragilis A22021 = assay: MIC against selected test organisms (Table 2); assay type: cell-based; conditions: Bacteroides fragilis, A22021, read-out: Minimum Inhibitory Concentration
B. fragilis Group I = assay: In vitro antianaerobic activity in GAM agar (Table 4); assay type: cell-based; conditions: Bacteroides fragilis, read-out: Geometric Mean of MIC, GAM agar, nonlactamase-producing, ampicillin-sensitive, 3 strains
B. fragilis Group II = assay: as above; assay type: cell-based; conditions: Bacteroides fragilis, read-out: Geometric Mean of MIC, GAM agar, lactamase-producing, moderately ampicillin-resistant, 3 strains
B. fragilis Group III = assay: as above; assay type: cell-based; conditions: read-out: Geometric Mean of MIC, GAM agar, lactamase-producing, highly ampicillin-resistant, 2 strains
[1] = system: Others Group IV (C. difficile, C. perfringens, P. acne and P. anaerobius); assay: microbe, parasite or virus in culture; assay type: cell-based; conditions: read-out: Geometric Mean of MIC, GAM agar, 1 strain each
in vivo = conditions: mouse, im
Experimental: Blood samples were collected from the orbital sinuses into heparinized capillary tubes and assayed by the paper disc-agar diffusion method using E. coli as the test organism. The half-life values and areas under the curve were determined.

[2] = system: Penicillin-sensitive S. aureus (Gp-Ia); assay: In vitro antibacterial activity, two-fold agar dilution, Mueller-Hinton agar (Table 1), group Gp-Ia; assay type: cell-based; conditions: Staphylococcus aureus; read-out: Geometric Mean of MIC
S. aureus Smith = assay: MIC against selected test organisms (Table 2); assay type: cell-based; conditions: Staphylococcus aureus; Gp-Ia, PC-S; read-out: Minimum Inhibitory Concentration
S. aureus A9497 = assay: MIC against selected test organisms (Table 2); assay type: cell-based; conditions: Staphylococcus aureus, Gp-Ia, PC-S, read-out: Minimum Inhibitory Concentration
S. aureus BX-1633 = assay: MIC against selected test organisms (Table 2); assay type: cell-based; conditions: Staphylococcus aureus, BX1633, read-out: Minimum Inhibitory Concentration
S. aureus A15092 = assay: MIC against selected test organisms (Table 2); assay type: cell-based; conditions: Staphylococcus aureus, Gp-Ib, PC-R, read-out: Minimum Inhibitory Concentration
E. cloacae A9656 = assay: MIC against selected test organisms (Table 2); assay type: cell-based; conditions: Enterobacter cloacae, Gn-II, CET-R, read-out: Minimum Inhibitory Concentration
[3] = Example 4, ceftazidime (mean of 3 experiments)
[4] = Example 5 ceftazidime (mean of 2 experiments)

Structure (SMILES) | MIC (Ps. aeruginosa (Gn-III)) [µg/mL] | MIC (B. fragilis A22021) [µg/mL] | AUC (in vivo; 10 mg/kg) [ng·h/mL] | concentration at 10 min (in vivo; 10 mg/kg) [ng/mL] | concentration at 20 min (in vivo; 10 mg/kg) [ng/mL] | concentration at 0.5 h (in vivo; 10 mg/kg) [ng/mL] | concentration at 40 min (in vivo; 10 mg/kg) [ng/mL] | concentration at 1 h (in vivo; 10 mg/kg) [ng/mL] | concentration at 1.5 h (in vivo; 10 mg/kg) [ng/mL] | half-life (in vivo; 10 mg/kg) [min] | AUC (in vivo; 20 mg/kg) [ng·h/mL] | concentration at 10 min (in vivo; 20 mg/kg) [ng/mL] | concentration at 20 min (in vivo; 20 mg/kg) [ng/mL] | concentration at 0.5 h (in vivo; 20 mg/kg) [ng/mL] | concentration at 40 min (in vivo; 20 mg/kg) [ng/mL] | concentration at 1 h (in vivo; 20 mg/kg) [ng/mL] | concentration at 1.5 h (in vivo; 20 mg/kg) [ng/mL] | half-life (in vivo; 20 mg/kg) [min] | further results
CC(C)(O/N=C(\C(=O)N[C@@H]1C(=O)N2C(C(=O)[O-])=C(C[n+]3ccccc3)CS[C@H]12)c1csc(N)n1)C(=O)O [Ceftazidime, ceftazidime, reference compound] | 2 (≈ 3.66 µM) | 12.5 (≈ 22.9 µM) | 5500 | 8000 | 7800 | 5500 | 3900 | 1800 | 400 | 16 | 10000 | 18000 | 14000 | 11000 | 7700 | 2400 | 610 | 14 | MIC (P. mirabilis A9554; A9554, read-out: Minimum Inhibitory Concentration): 0.05 µg/mL (≈ 0.0915 µM); MIC (P. aeruginosa A15150; A15150, read-out: Minimum Inhibitory Concentration): 0.8 µg/mL (≈ 1.46 µM); MIC (B. fragilis Group I; [3]): 5.3 µg/mL (≈ 9.7 µM); MIC (B. fragilis Group I; [4]): 8.9 µg/mL (≈ 16.3 µM); MIC (B. fragilis Group II; [3]): 13 µg/mL (≈ 23.8 µM); MIC (B. fragilis Group II; [4]): 16 µg/mL (≈ 29.3 µM); MIC (B. fragilis Group III; [3]): 81 µg/mL (≈ 148 µM); MIC (B. fragilis Group III; [4]): > 100 µg/mL; MIC [1, 3]: 6.2 µg/mL (≈ 11.3 µM); MIC [1, 4]: 8.2 µg/mL (≈ 15 µM)
CSc1cc[n+](CC2=C(C(=O)[O-])N3C(=O)C(NC(=O)/C(=N\OC(C)(C)C(=O)O)c4csc(N)n4)C3SC2)cc1 (stereo not drawn) [Example 2, 7-[(Z)-2-(2-Aminothiazol-4-yl)-2-(2-carboxyprop-2-oxyimino)-acetamido]-3-[(4-methylthiopyridinium)methyl]-3-cephem-4-carboxylate] | 3.1 (≈ 5.23 µM) | 12.5 (≈ 21.1 µM) | 3700 | 4500 | 5100 | 3800 | 3200 | 1100 | 450 | 18 | 10000 | 12000 | 12000 | 9300 | 8700 | 4000 | 1200 | 16 | MIC [2]: 4.7 µg/mL (≈ 7.93 µM); MIC (S. aureus Smith): 6.3 µg/mL (≈ 10.6 µM); MIC (S. aureus A9497): 3.1 µg/mL (≈ 5.23 µM); MIC (S. aureus BX-1633): 6.3 µg/mL (≈ 10.6 µM); MIC (S. aureus A15092): 6.3 µg/mL (≈ 10.6 µM); MIC (P. mirabilis A9554; A9554, Gn-Ia, CET-S, read-out: Minimum Inhibitory Concentration): 0.05 µg/mL (≈ 0.0844 µM); MIC (E. cloacae A9656): 0.2 µg/mL (≈ 0.337 µM); MIC (P. aeruginosa A15150; A15150, Gn-III, CET-R, read-out: Minimum Inhibitory Concentration): 1.6 µg/mL (≈ 2.7 µM)
